Test system: c-Myc
Experiment: c-Myc immunofluorescence assay
Type: cell-based, human
Conditions: A549 cells, 24 hours, anti-c-Myc immunofluorescence
Description: A549 human non-small cell lung carcinoma cells were treated for 24 hours with increasing compound concentration, cells were fixed and stained with a nuclei stain (DAPI) and anti-c-Myc fluorescent antibody. The c-Myc signal was quantified by image analysis, and data was exported and analyzed using TIBCO Spotfire® (TIBCO Corporation). Dose response curves were generated and fitted with logaristic regression to calculate potency (EC50 values). Potency values are presented in Table 2 for all compounds and are shown for selected compounds (FIG. 3).
A549 cells were grown in 384-wells plates (Perkin Elmer, Cat. 6057300) for 48 hours, treated with compounds and then fixed for 20 min in 4% paraformaldehyde. After that permeabilization was done using 0.1% Triton X-100 in PBS for 20 min. Primary anti-c-Myc antibody (Abcam, ab32072) staining was performed for 90 min at room temperature. Cells then were washed twice with PBS and incubated with secondary antibody (Abcam, ab150075) for 90 min at room temperature. Nuclei were stained with DAPI for 10 min and washed twice with PBS.
Cell images were taken with Operetta (Perkin Elmer, USA), a wide-field fluorescence microscope at 20× magnification. After acquisition, the images were transferred to Columbus software (Perkin-Elmer) for image analysis. In Columbus, cells were identified by their nucleus, using the “Find Nuceli” module and cytoplasm was detected based on the secondary antibody channel. Subsequently, the fluorescent signal was enumerated in the identified cell region. Then data was exported to a data analysis and visualization software, Tibco Spotfire, USA.

Row | SMILES | Myc Efficacy (−LogEC50)
1 | COc1ccc(-c2noc(N3CCC(C(=O)NCC4CCN(Cc5ccc(C)cc5)C4)CC3)n2)cn1 (stereo not drawn) [Compound 159, 1-(3-(6-methoxypyridin-3-yl)-1,2,4-oxadiazol-5-yl)-N-((1-(4-methylbenzyl)pyrrolidin-3-yl)methyl)piperidine-4-carboxamide] | + (+ >3 and <5)
2 | COc1ccc(-c2csc(N3CCC(C(=O)NCC4CCN(Cc5ccc(C)cc5)C4)CC3)n2)cc1 (stereo not drawn) [Compound 160, 1-(4-(4-methoxyphenyl)thiazol-2-yl)-N-((1-(4-methylbenzyl)pyrrolidin-3-yl)methyl)piperidine-4-carboxamide] | ++ (++ ≥5 and <6)
3 | COc1ccc(-c2noc(N3CCC(C(=O)NCc4ccncc4)CC3)n2)cc1 [Compound 161, 1-(3-(4-methoxyphenyl)-1,2,4-oxadiazol-5-yl)-N-(pyridin-4-ylmethyl)piperidine-4-carboxamide] | + (+ >3 and <5)
4 | COc1ccc(-c2noc(N3CCC(C(=O)NCc4cncnc4)CC3)n2)cc1 [Compound 162, 1-(3-(4-methoxyphenyl)-1,2,4-oxadiazol-5-yl)-N-(pyrimidin-5-ylmethyl)piperidine-4-carboxamide] | + (+ >3 and <5)
5 | O=C(NCc1cccnc1)C1CCN(c2nc(-c3ccc(Cl)cc3)no2)CC1 [Compound 163, 1-(3-(4-chlorophenyl)-1,2,4-oxadiazol-5-yl)-N-(pyridin-3-ylmethyl)piperidine-4-carboxamide] | + (+ >3 and <5)
6 | O=C(C1CCN(c2nc(-c3ccccc3Cl)no2)CC1)N1CCOCC1 [Compound 164, (1-(3-(2-chlorophenyl)-1,2,4-oxadiazol-5-yl)piperidin-4-yl)(morpholino)methanone] | − (− ≤3)
7 | O=C(C1CCN(c2nc(-c3cccc(Cl)c3)no2)CC1)N1CCOCC1 [Compound 165, (1-(3-(3-chlorophenyl)-1,2,4-oxadiazol-5-yl)piperidin-4-yl)(morpholino)methanone] | + (+ >3 and <5)
8 | O=C(C1CCN(c2nc(-c3ccc(Cl)cc3)no2)CC1)N1CCOCC1 [Compound 166, (1-(3-(4-chlorophenyl)-1,2,4-oxadiazol-5-yl)piperidin-4-yl)(morpholino)methanone] | + (+ >3 and <5)
9 | Cc1ccc(CN2CC[C@@H](CNC(=O)C3CCN(c4nc(-c5ccc(Cl)cc5)no4)CC3)C2)cc1 [Compound 167, (S)-1-(3-(4-chlorophenyl)-1,2,4-oxadiazol-5-yl)-N-((1-(4-methylbenzyl)pyrrolidin-3-yl)methyl)piperidine-4-carboxamide] | +++ (+++ ≥6)
10 | Cc1ccc(CN2CC[C@H](CNC(=O)C3CCN(c4nc(-c5ccc(Cl)cc5)no4)CC3)C2)cc1 [Compound 168, (R)-1-(3-(4-chlorophenyl)-1,2,4-oxadiazol-5-yl)-N-((1-(4-methylbenzyl)pyrrolidin-3-yl)methyl)piperidine-4-carboxamide] | ++ (++ ≥5 and <6)
11 | COc1ccc(-c2n[nH]c(N3CCC(C(=O)NCC4CCN(Cc5ccc(C)cc5)C4)CC3)n2)cc1 (stereo not drawn) [Compound 169, 1-(3-(4-methoxyphenyl)-1H-1,2,4-triazol-5-yl)-N-((1-(4-methylbenzyl)pyrrolidin-3-yl)methyl)piperidine-4-carboxamide] | + (+ >3 and <5)
12 | Cc1ccc(CN2CCC(CNC(=O)C3CCN(c4nc(-c5ccc(O)cc5)no4)CC3)C2)cc1 (stereo not drawn) [Compound 170, 1-(3-(4-hydroxyphenyl)-1,2,4-oxadiazol-5-yl)-N-((1-(4-methylbenzyl)pyrrolidin-3-yl)methyl)piperidine-4-carboxamide] | + (+ >3 and <5)
13 | COc1ccc(-c2cccc(N3CCC(C(=O)NCC4CCN(Cc5ccc(C)cc5)C4)CC3)c2)cc1 (stereo not drawn) [Compound 171, 1-(4′-methoxy-[1,1′-biphenyl]-3-yl)-N-((1-(4-methylbenzyl)pyrrolidin-3-yl)methyl)piperidine-4-carboxamide] | ++ (++ ≥5 and <6)
14 | COc1ccc(-c2noc(C3CCC(C(=O)NCC4CCN(Cc5ccccc5)C4)CC3)n2)cc1 (stereo not drawn) [Compound 172, (1s,4s)-N-((1-benzylpyrrolidin-3-yl)methyl)-4-(3-(4-methoxyphenyl)-1,2,4-oxadiazol-5-yl)cyclohexane-1-carboxamide] | ++ (++ ≥5 and <6)
15 | COc1ccc(-c2noc([C@H]3CC[C@@H](C(=O)O)CC3)n2)cc1 [Compound 173, (1s,4s)-4-(3-(4-methoxyphenyl)-1,2,4-oxadiazol-5-yl)cyclohexane-1-carboxylic acid] | + (+ >3 and <5)
16 | COc1ccc(-c2noc(C3CCC(C(=O)NCC4CCN(Cc5ccccc5)C4)CC3)n2)cc1 (stereo not drawn) [Compound 174, (1r,4r)-N-((1-benzylpyrrolidin-3-yl)methyl)-4-(3-(4-methoxyphenyl)-1,2,4-oxadiazol-5-yl)cyclohexane-1-carboxamide] | ++ (++ ≥5 and <6)
17 | COc1ccc(-c2noc([C@H]3CC[C@H](C(=O)O)CC3)n2)cc1 [Compound 175, (1r,4r)-4-(3-(4-methoxyphenyl)-1,2,4-oxadiazol-5-yl)cyclohexane-1-carboxylic acid] | + (+ >3 and <5)
18 | COc1ccc(-c2noc(C3CCC(C(=O)NCC4CC(=O)N(Cc5ccccc5)C4)CC3)n2)cc1 (stereo not drawn) [Compound 176, (1s,4s)-N-((1-benzyl-5-oxopyrrolidin-3-yl)methyl)-4-(3-(4-methoxyphenyl)-1,2,4-oxadiazol-5-yl)cyclohexane-1-carboxamide] | + (+ >3 and <5)
19 | COc1ccc(-c2noc(C3CCC(C(=O)NCC4CC(=O)N(Cc5ccccc5)C4)CC3)n2)cc1 (stereo not drawn) [Compound 177, (1r,4r)-N-((1-benzyl-5-oxopyrrolidin-3-yl)methyl)-4-(3-(4-methoxyphenyl)-1,2,4-oxadiazol-5-yl)cyclohexane-1-carboxamide] | ++ (++ ≥5 and <6)
20 | O=C(NCc1cccnc1)C1CCN(c2nc(-c3ccc(O)cc3)no2)CC1 [Compound 178, 1-(3-(4-hydroxyphenyl)-1,2,4-oxadiazol-5-yl)-N-(pyridin-3-ylmethyl)piperidine-4-carboxamide] | + (+ >3 and <5)
21 | COc1ccccc1-c1noc(N2CCC(C(=O)NCc3cccnc3)CC2)n1 [Compound 179, 1-(3-(2-methoxyphenyl)-1,2,4-oxadiazol-5-yl)-N-(pyridin-3-ylmethyl)piperidine-4-carboxamide] | + (+ >3 and <5)
22 | COc1cccc(-c2noc(N3CCC(C(=O)NCc4cccnc4)CC3)n2)c1 [Compound 180, 1-(3-(3-methoxyphenyl)-1,2,4-oxadiazol-5-yl)-N-(pyridin-3-ylmethyl)piperidine-4-carboxamide] | + (+ >3 and <5)
23 | COc1ccc(-c2cc(N3CCC(C(=O)NCc4cccnc4)CC3)on2)cc1 [Compound 181, 1-(3-(4-methoxyphenyl)isoxazol-5-yl)-N-(pyridin-3-ylmethyl)piperidine-4-carboxamide] | + (+ >3 and <5)
24 | O=C(C1CCN(c2nc(-c3ccc(O)cc3)no2)CC1)N1CCOCC1 [Compound 182, (1-(3-(4-hydroxyphenyl)-1,2,4-oxadiazol-5-yl)piperidin-4-yl)(morpholino)methanone] | + (+ >3 and <5)
25 | COc1ccc(-c2cc(N3CCC(C(=O)N4CCOCC4)CC3)on2)cc1 [Compound 183, (1-(3-(4-methoxyphenyl)isoxazol-5-yl)piperidin-4-yl)(morpholino)methanone] | + (+ >3 and <5)
26 | CC(=O)Nc1ccc(-c2noc(N3CCC(C(=O)NCC4CCN(Cc5ccc(C)cc5)C4)CC3)n2)cc1 (stereo not drawn) [Compound 184, 1-(3-(4-acetamidophenyl)-1,2,4-oxadiazol-5-yl)-N-((1-(4-methylbenzyl)pyrrolidin-3-yl)methyl)piperidine-4-carboxamide] | + (+ >3 and <5)
27 | COc1ccc(-c2noc(N3CCC(C(=O)NCC4CCN(Cc5ccc(C)cc5)C4)CC3)n2)nc1 (stereo not drawn) [Compound 185, 1-(3-(5-methoxypyridin-2-yl)-1,2,4-oxadiazol-5-yl)-N-((1-(4-methylbenzyl)pyrrolidin-3-yl)methyl)piperidine-4-carboxamide] | ++ (++ ≥5 and <6)
28 | Cc1ccc(CN2CCC(CNC(=O)C3CCN(c4nc(-c5cccc(C)c5)no4)CC3)C2)cc1 (stereo not drawn) [Compound 186, N-((1-(4-methylbenzyl)pyrrolidin-3-yl)methyl)-1-(3-(m-tolyl)-1,2,4-oxadiazol-5-yl)piperidine-4-carboxamide] | ++ (++ ≥5 and <6)
29 | COc1cccc(-c2noc(N3CCC(C(=O)NCC4CCN(Cc5ccc(C)cc5)C4)CC3)n2)c1 (stereo not drawn) [Compound 187, 1-(3-(3-methoxyphenyl)-1,2,4-oxadiazol-5-yl)-N-((1-(4-methylbenzyl)pyrrolidin-3-yl)methyl)piperidine-4-carboxamide] | ++ (++ ≥5 and <6)
30 | Cc1ccc(CN2CCC(CNC(=O)C3CCN(c4nc(-c5ccccc5C)no4)CC3)C2)cc1 (stereo not drawn) [Compound 188, N-((1-(4-methylbenzyl)pyrrolidin-3-yl)methyl)-1-(3-(o-tolyl)-1,2,4-oxadiazol-5-yl)piperidine-4-carboxamide] | ++ (++ ≥5 and <6)
